A word on the zone of inhibition: it is the extent of the growth-free halo in a diffusion test. High values mean wide suppression of growth, low ones little suppression of growth.

The record followed here is patent US20190365843A1, “Antimicrobial Activity of Bioactive Compounds and Their Derivatives” (priority 2018, published 2019).

One experiment concerns ETEC. The experiment in a line: Agar diffusion growth inhibition zone, ETEC. The class given is cell-based, Enterotoxigenic E. coli. (In general: A growth-free zone around the sample is the usual read-out of agar diffusion tests.)
Another experiment concerns Enterococcus sp. Briefly: Agar diffusion growth inhibition zone, Enterococcus sp. Type of experiment: cell-based, Enterococcus species. The conditions noted are these: 6 mm = no activity. The procedure: (§1) Among the bacterial agents tested Gram positive and Gram negative bacterial groups represented by Staphylococcus aureus and Enterococcus species and pathogenic members of Enterobacteriaceae, Vibronaceae, Aeromonadaceae, Pseudomonadaceae were tested. Freshly sub-cultured bacterial strains were inoculated into peptone water and incubated for 4 hours at 37° C. and adjusted to a turbidity of 0.5 (Gram Negative Bacilli), 1 (Gram Positive Cocci) and 4 (Pus cells, GNB, & few Budding yeast cells) Mc Farland standards (10^8 CFU/ml) respectively.
(§2) The different bioactive compounds and their derivatives were dissolved and diluted with solvents (DMSO), number of subsequent dilutions was performed to obtain different concentrations of the bioactive compounds and their derivatives. (Working Concentrations).
(§3) Agar well diffusion method is widely used to evaluate the antimicrobial activity of plants or other synthetic products. The suspension (microbial inoculum) was used to inoculate into Muller Hinton Agar Petri plates by lawn culture. Well (diameter 6 mm) were punched in the agar by sterile borer and filled with 50 μl of dissolved extracts. Plates were incubated in incubator at 37° C. for 24 hours and measured the growth inhibition zone diameters in mm compared with that of control (DMSO) showing no growth.
(§4) The bioactive compounds were tested with desired concentrations in 6 mm filter paper discs (Whatman, no. 3) were impregnated with 10 μL of each of the different dilutions. The discs were allowed to remain at room temperature until complete diluent evaporation and kept under refrigeration until ready to be used. 10 μL of diluents used to products were used as control. Tests were performed by Agar disk-diffusion testing method, which is the official method used in many clinical microbiology laboratories for routine antimicrobial susceptibility testing.
(§5) Similar to the procedure used in Agar well diffusion method, the suspension (microbial inoculum) was used to inoculate into Muller Hinton Agar Petri plates by lawn culture. Then, filter paper discs (about 6 mm in diameter), containing the test compound at a desired concentration, were placed on the agar surface. The Petri dishes were incubated under suitable incubation conditions.
(§6) Bioactive compounds showing zone of inhibition beyond the size of 6 mm are considered to be having an anti-microbial activity.

The next experiment relates to Pleisiomonas sp. Briefly: Agar diffusion growth inhibition zone, Pleisiomonas sp. The class given is cell-based, Pleisiomonas species. The conditions noted are these: for zone of inhibition at 100 mg/mL / zone of inhibition at 150 mg/mL: Pleisiomonas sp., 6 mm = no activity; for inhibition of growth: Plesiomonas species. The protocol:
as §1, §2, §3, §4, §5, §6

A further experiment concerns Shigella sp. The experiment in a line: Agar diffusion growth inhibition zone, Shigella sp. The conditions noted are these: Shigella. The class given is cell-based, Shigella species.
A further experiment relates to Candida abicans. The experiment in a line: Agar diffusion growth inhibition zone, Candida abicans. The class given is cell-based, Candida albicans. The conditions noted are these: 6 mm = no activity. The procedure: as §1, §2, §3, §4, §5, §6
The test system of another experiment is S. aureus. The experiment in a line: Agar diffusion growth inhibition zone, S. aureus. Type of experiment: cell-based, Staphylococcus aureus. The note with it: for zone of inhibition at 100 mg/mL / zone of inhibition at 150 mg/mL: Staphylococcus aureus, 6 mm = no activity. The procedure: as §1, §2, §3, §4, §5, §6
Another experiment has as its system Salmonella typhimurium. The experiment in a line: Agar diffusion growth inhibition zone, Salmonella typhimurium. The conditions noted are these: Salmonella enterica, 6 mm = no activity. The class given is cell-based. The procedure: as §1, §2, §3, §4, §5, §6
For the next experiment, the system named is Pseudomonas sp. Briefly: Agar diffusion growth inhibition zone, Pseudomonas sp. The class given is cell-based, Pseudomonas species. The note with it: Pseudomonas.
Another experiment has as its system Vibrio cholera. The experiment in a line: Agar diffusion growth inhibition zone, Vibrio cholera. The class given is cell-based, Vibrio cholerae. The conditions noted are these: Vibrio cholerae.
A further experiment deals with Aeromonas sp. Briefly: Agar diffusion growth inhibition zone, Aeromonas sp. Type of experiment: cell-based, Aeromonas species. The note with it: Aeromonas sp., 6 mm = no activity. The procedure:
as §1, §2, §3, §4, §5, §6

Another experiment concerns EAEC. The experiment in a line: Agar diffusion growth inhibition zone, EAEC. The class given is cell-based, Enteroaggregative E. coli. The note with it: Escherichia coli, 6 mm = no activity. The procedure: as §1, §2, §3, §4, §5, §6
The next experiment deals with E. coli ATCC 25922. The experiment in a line: Agar diffusion growth inhibition zone, E. coli ATCC 25922. Type of experiment: cell-based. The note with it: Escherichia coli, 6 mm = no activity; for zone of inhibition at 100 mg/mL: ATCC25922, 100 mg; for zone of inhibition at 150 mg/mL: ATCC25922, 150 mg. The procedure:
as §1, §2, §3, §4, §5, §6

A further experiment concerns Citrobacter sp. The experiment in a line: Agar diffusion growth inhibition zone, Citrobacter sp. The class given is cell-based, Citrobacter species. The conditions noted are these: 6 mm = no activity. The procedure: as §1, §2, §3, §4, §5, §6
In another experiment the test system is Klebsiella sp. The experiment in a line: Agar diffusion growth inhibition zone, Klebsiella sp. Type of experiment: cell-based, Klebsiella species. The conditions noted are these: 6 mm = no activity. The protocol: as §1, §2, §3, §4, §5, §6
For another experiment, the system named is Proteus sp. The experiment in a line: Agar diffusion growth inhibition zone, Proteus sp. Type of experiment: cell-based, Proteus species. The conditions noted are these: for zone of inhibition at 150 mg/mL: Proteus sp., 6 mm = no activity. The procedure:
as §1, §2, §3, §4, §5, §6

Experimental for ETEC: (§7) Agar well diffusion method is widely used to evaluate the antimicrobial activity of plants or other synthetic products. The suspension (microbial inoculum) was used to inoculate into Muller Hinton Agar Petri plates by lawn culture. Well (diameter 6 mm) were punched in the agar by sterile borer and filled with 50 μl of dissolved extracts. Plates were incubated in incubator at 37° C. for 24 hours and measured the growth inhibition zone diameters in mm compared with that of control (DMSO) showing no growth. The antimicrobial agent diffuses in the agar medium and inhibits the growth of the microbial strain tested (Valgas et al., (2016) Methods for in vitro evaluating antimicrobial activity: A review. Journal of Pharmaceutical Analysis. 6(2):71-9).
(§8) Similar to the procedure used in Agar well diffusion method, the suspension (microbial inoculum) was used to inoculate into Muller Hinton Agar Petri plates by lawn culture. Then, filter paper discs (about 6 mm in diameter), containing the test compound at a desired concentration, were placed on the agar surface. The Petri dishes were incubated under suitable incubation conditions. Generally, antimicrobial agent diffuses into the agar and inhibits germination and growth of the test microorganism and then the diameters of inhibition growth zones are measured (Valgas et al., (2007) Screening methods to determine antibacterial activity of natural products. Brazilian Journal of Microbiology. 38:369-80; Balouiri M et al., (2016) Methods for in vitro evaluating antimicrobial activity: A review. Journal of Pharmaceutical Analysis. 6(2):71-9).
Experimental for Pseudomonas sp.: as §7, §8
Experimental for Shigella sp.: as §7, §8
Experimental for Vibrio cholera: as §7, §8

As to `COc1cc(/C=C/C(=O)CC(=O)/C=C/c2ccc(O)c(OC)c2)ccc1O` [compound 1, Curcumin], the “inhibition of growth” value is reported as “significantly inhibited the growth” with ETEC (ETEC), “inhibited” with Pleisiomonas sp. and “inhibited the growth” in the experiment on Vibrio cholera. Besides, the zone of inhibition at 100000 µg/disc was 10 mm in the experiment with ETEC (Escherichia coli), 6 mm in the experiment with Shigella sp., 6 mm in the experiment on Pseudomonas sp. and 10 mm with Vibrio cholera. Besides, the zone of inhibition at 150000 µg/disc stood at 10 mm in the experiment with ETEC (Escherichia coli), 6 mm in the experiment on Shigella sp., 6 mm in the experiment on Pseudomonas sp. and 6 mm in the experiment with Vibrio cholera. Further, the zone of inhibition at 100 mg/mL in the experiment with Enterococcus sp. is 6 mm; in the experiment on Pleisiomonas sp., 10 mm; with Candida abicans it was 6 mm; with S. aureus, 10 mm; in the experiment on Salmonella typhimurium it was 6 mm; in the experiment on Aeromonas sp., 6 mm. Also, the zone of inhibition at 100 mg/mL with EAEC, in the experiment with E. coli ATCC 25922, in the experiment on Citrobacter sp. and in the experiment with Klebsiella sp. was 6 mm throughout. Moreover, the zone of inhibition at 150 mg/mL is 6 mm with Enterococcus sp.; 10 mm in the experiment on Pleisiomonas sp.; 6 mm in the experiment on Candida abicans; 10 mm in the experiment with S. aureus; 6 mm in the experiment with Salmonella typhimurium; 6 mm with Aeromonas sp.. The zone of inhibition at 150 mg/mL was 6 mm in the experiment on EAEC; 6 mm in the experiment with E. coli ATCC 25922; 6 mm in the experiment with Citrobacter sp.; 6 mm in the experiment with Klebsiella sp.; 11 mm in the experiment on Proteus sp.. In addition, the zone of inhibition in the experiment on S. aureus (concentration not given) is recorded as 10 mm; with Proteus sp. (Proteus species, at both concentrations of 100 mg and 150 mg), 11 mm.

In the case of `COc1cc(CCc2cc(CCc3ccc(O)c(OC)c3)on2)ccc1O` [compound 8, Tetrahydrocurcumin Isoxazole], the zone of inhibition at 100 mg/mL in the experiment with Enterococcus sp., with Pleisiomonas sp., in the experiment on Candida abicans, in the experiment with S. aureus, in the experiment with Salmonella typhimurium and in the experiment with Aeromonas sp. was 6 mm each time. Also, the zone of inhibition at 100 mg/mL with EAEC was found to be 8 mm; in the experiment with E. coli ATCC 25922, 6 mm; with Citrobacter sp. it was 6 mm; with Klebsiella sp., 6 mm. The zone of inhibition at 150 mg/mL in the experiment with Enterococcus sp., in the experiment with Pleisiomonas sp., in the experiment with Candida abicans, in the experiment on S. aureus, in the experiment with Salmonella typhimurium and in the experiment with Aeromonas sp. was 6 mm throughout. The zone of inhibition at 150 mg/mL in the experiment with EAEC turned out to be 8 mm; with E. coli ATCC 25922 it was 6 mm; with Citrobacter sp., 6 mm; with Klebsiella sp., 6 mm; with Proteus sp. it was 6 mm. Moreover, the zone of inhibition at 100000 µg/disc in the experiment with Shigella sp., in the experiment with Pseudomonas sp. and in the experiment on Vibrio cholera was 6 mm each time. Besides, the zone of inhibition at 150000 µg/disc in the experiment with Shigella sp., in the experiment with Pseudomonas sp. and in the experiment with Vibrio cholera was 6 mm throughout.

For `COc1cc(/C=C/C(=O)COC(=O)/C=C/c2ccc(O)cc2)ccc1O` [compound 11, Demethoxycalebin- A1], the zone of inhibition at 100 mg/mL with Enterococcus sp., with Pleisiomonas sp., in the experiment on Candida abicans, in the experiment on S. aureus, in the experiment on Salmonella typhimurium and in the experiment on Aeromonas sp. was 6 mm each time. In addition, the zone of inhibition at 100 mg/mL with EAEC, in the experiment on E. coli ATCC 25922, in the experiment with Citrobacter sp. and with Klebsiella sp. was 6 mm throughout. For the same compound, the zone of inhibition at 100000 µg/disc with Shigella sp., with Pseudomonas sp. and in the experiment on Vibrio cholera was 6 mm throughout.

For `COc1cc(/C=C/C(=O)OCC(=O)/C=C/c2ccc(O)cc2)ccc1O` [compound 12, Demethoxycalebin- A2], the zone of inhibition at 100 mg/mL turned out to be 6 mm in the experiment with Enterococcus sp.; 10 mm in the experiment with Pleisiomonas sp.; 6 mm in the experiment with Candida abicans; 6 mm with S. aureus; 6 mm in the experiment on Salmonella typhimurium; 6 mm in the experiment on Aeromonas sp.. In addition, the zone of inhibition at 100 mg/mL with EAEC, in the experiment with E. coli ATCC 25922, with Citrobacter sp. and in the experiment with Klebsiella sp. was 6 mm throughout. The zone of inhibition at 100000 µg/disc in the experiment with Shigella sp., in the experiment on Pseudomonas sp. and in the experiment on Vibrio cholera was 6 mm in each case.

Regarding `O=C(/C=C/c1ccc(O)cc1)COC(=O)/C=C/c1ccc(O)cc1` [compound 13, Bisdemethoxycalebin- A], the zone of inhibition at 100 mg/mL with Enterococcus sp. came out at 6 mm; in the experiment on Pleisiomonas sp., 9 mm; in the experiment with Candida abicans, 6 mm; in the experiment with S. aureus it was 6 mm; in the experiment with Salmonella typhimurium, 6 mm; in the experiment on Aeromonas sp., 6 mm. The zone of inhibition at 100 mg/mL with EAEC, with E. coli ATCC 25922, in the experiment on Citrobacter sp. and in the experiment on Klebsiella sp. was 6 mm throughout. The “inhibition of growth” value with Pleisiomonas sp. was “inhibited”. Besides, the zone of inhibition at 100000 µg/disc in the experiment with Shigella sp., in the experiment with Pseudomonas sp. and in the experiment on Vibrio cholera was 6 mm each time.

For Demethoxycalebin-A, the “inhibition of growth” value in the experiment on Pleisiomonas sp. is reported as “inhibited”.
